Measurements from patent publication US7968713B2, “Method of synthesizing quinoxaline derivative by microwave irradiation” (Nihon University, priority 2005, dated 2011).

Experiments:
HepG2 cells = assay: Hypoxic selective cytotoxicity test with respect to HepG2 cells (colony forming ratio); assay type: cell-based, human; conditions: 20 μM exposed for six hours, cultivated for seven days; for Activity (Surviving fraction) (%) hypoxia: hypoxic state (hypoxia); for Activity (Surviving fraction) (%) noroxia: usual oxygen state (noroxia)
Description: (Hypoxic Selective Cytotoxicity Test with Respect to HepG2 Cells)
A cytotoxicity reinforcing effect on a hypoxic condition was tested using HepG2 cells which were human liver cancer cells. In a usual oxygen state (noroxia) and a hypoxic state (hypoxia), 20 μM of each quinoxaline 1,4-dioxide derivative shown in Table 1 (Compounds 1 to 8 including R1 to R6 shown in Table 1 in the above general formula (3)) was exposed for six hours, and cultivated for seven days, and then colony forming ratios were compared. It is to be noted that in Table 1, “Ph-NO2” is a group in which a nitro group is introduced into a para position of a benzoyl group.

| melting point | SMILES | Activity (Surviving fraction) (%) hypoxia (HepG2 cells) [%] | Activity (Surviving fraction) (%) noroxia (HepG2 cells) [%] |
| --- | --- | --- | --- |
| 286 °C (dec.) | COc1cc2c(cc1OC)[n+]([O-])c(-c1ccccc1)c(C(=O)c1ccccc1)[n+]2[O-] [Example 3, 2-benzoyl-6,7-dimethoxy-3-phenylquinoxaline 1,4-dioxide] |  |  |
| 254 °C | COc1cc2c(cc1OC)[n+]([O-])c(C(C)=O)c(C)[n+]2[O-] [Example 5, 2-acetyl-6,7-dimethoxy-3-methylquinoxaline 1,4-dioxide] |  |  |

More lines, now with the values behind:

| SMILES | melting point | Activity (Surviving fraction) (%) hypoxia (HepG2 cells) [%] | Activity (Surviving fraction) (%) noroxia (HepG2 cells) [%] |
| --- | --- | --- | --- |
| Cc1c(C(=O)c2ccc([N+](=O)[O-])cc2)[n+]([O-])c2cc(F)c(F)cc2[n+]1[O-] [Compound 8, 6,7-difluoro-3-methyl-2-(41-nitrobenzoyl)-quinoxaline 1,4-dioxide] | 232 to 233 °C | 1 | 44 |
| Cc1c(C(=O)c2ccc([N+](=O)[O-])cc2)[n+]([O-])c2cc(Cl)c(Cl)cc2[n+]1[O-] [Compound 7, 6,7-dichloro-3-methyl-2-(4′-nitrobenzoyl)-quinoxaline 1,4-dioxide] | 215 to 217 °C | 6 | 73 |
| O=C(c1ccccc1)c1c(-c2ccccc2)[n+]([O-])c2cc(F)c(F)cc2[n+]1[O-] [Example 2, 2-benzoyl-6,7-difluoro-3-phenylquinoxaline 1,4-dioxide] | 249 to 251 °C |  |  |
